Assay results: ChEMBL document CHEMBL5726990, “Thiazolidinones as cellular anandamide uptake inhibitors and their use in the treatment of psychiatric or neurological disorders and inflammation, in particular neuroinflammation” (2019)

Assay: [3H]-AEA Cellular Uptake: Screening for AEA cellular uptake inhibition was performed in a semi-automated procedure: Pipetting and washing steps were performed by a Biomek3000 laboratory workstation. First, required amounts of U937 cells were centrifuged at 100×g for 5 min and resuspended in RPMI (37° C.) to a final concentration of 2×10^6 cells/mL. Then, 250 μL of cell suspension (0.5×10^6 cells per sample) were transferred into AquaSil™ silanized glass vials (Chromacol 1.1-MTV) in 96-well format. After addition of 5 μL vehicle (DMSO) or compounds the cells were incubated at 37° C. for 15 min. As positive controls OMDM-2 and UCM707 were used at 10 μM in each run. The ETI-T compounds were measured at up to 7 concentrations in triplicates from 100 pM-100 μM. After pre-incubation, a mixture of 0.5 nM[ethanolamine-1-3H]-AEA, (60 Ci/mmol) and 99.5 nM of cold AEA (final 100 nM) was added and samples were incubated at 37° C. for another 15 min. The reaction was stopped by rapid filtration over UniFilter-96 GF/C filters (PerkinElmer) pre-soaked with PBS 0.25% BSA. Cells were washed three times with 100 μL ice-cold PBS buffer containing 1% fatty acid free BSA. After drying, 45 μL MicroScint 20 scintillation cocktail (PerkinElmer, Waltham, Mass., US) was added to the wells and the plate was sealed. Radioactivity was measured by liquid scintillation counting on a PerkinElmer Wallac Trilux MicroBeta 1450 during 2 min. Non-specific binding of [3H]AEA (100 nM) to the glass vials was never higher than 10%. IC50 values were calculated by GraphPad® by non-linear regression using the built-in log(inhibitor) vs. response-variable slope (four parameters) function.
Conditions: U-937

Row | IC50 | SMILES
1 | 355 nM | CCCN1C(=O)/C(=C\c2ccc(C(C)C)cc2)S/C1=N\c1ccccc1
2 | 145 nM | CC/N=C1\S/C(=C\c2ccc(O)c(OCC)c2)C(=O)N1CC
3 | 434 nM | O=C1/C(=C/c2ccc(O)cc2)S/C(=N\c2ccccc2)N1OC1=CC=CC1
